{"source": "patent US7994123B2", "about": "“Hybrid proteins with ErbB4 extracellular domain and neuregulin heparin-binding domain for targeting” (Wayne State University, priority 2004, dated 2011)", "molecules": {"B1": {"name": "IgB4: soluble NRG antagonist: ECD of erbB4 receptor fused to Fc portion of human IgG1 (protein)", "chain": "QSVCAGTENKLSSLSDLEQQYRALRKYYENCEVVMGNLEITSIEHNRDLSFLRSVREVTGYVLVALNQFRYLPLENLRIIRGTKLYEDRYALAIFLNYRKDGNFGLQELGLKNLTEILNGGVYVDQNKFLCYADTIHWQDIVRNPWPSNLTLVSTNGSSGCGRCHKSCTGRCWGPTENHCQTLTRTVCAEQCDGRCYGPYVSDCCHRECAGGCSGPKDTDCFACMNFNDSGACVTQCPQTFVYNPTTFQLEHNFNAKYTYGAFCVKKCPHNFVVDSSSCVRACPSSKMEVEENGIKMCKPCTDICPKACDGIGTGSLMSAQTVDSSNIDKFINCTKINGNLIFLVTGIHGDPYNAIEAIDPEKLNVFRTVREITGFLNIQSWPPNMTDFSVFSNLVTIGGRVLYSGLSLLILKQQGITSLQFQSLKEISAGNIYITDNSNLCYYHTINWTTLFSTINQRIVIRDNRKAENCTAEGMVCNHLCSSDGCWGPGPDQCLSCRRFSRGRICIESCNLYDGEFREFENGSICVECDPQCEKMEDGLLTCHGPGPDNCTKCSHFKDGPNCVEKCPDGLQGANSFIFKYADPDRECHPCHPNCTQGCNGPTSHDCIYYPWTGHSTLPQHARTP", "modifications": "left off: a dimerising Fc or GST", "notes": "soluble NRG antagonist: ECD of erbB4 receptor fused to Fc portion of human IgG1"}}, "key": {"[1]": {"tested_on": "MCF10CA1 human breast cancer cells", "assay": "Cell proliferation assay, MCF10CA1", "format": "cell-based", "conditions": "IgB4 conditioned media, 10 μM AG1478 or 100 μg/ml Trastuzumab; for MCF10CA1 proliferation with exogenous NRG: 1 nM NRG", "experimental": "Cell proliferation assays: All three breast epithelial cell lines were plated at 5000 cells/well in 48 well plates in regular MCF10A/AT or MCF10CA1 media. After incubation for 3 days, 1 nM NRG in MCF10A/AT media or just MCF10A/AT media alone were applied to the cells for another 24 hours followed by washing them with culture media and then counting cell numbers using an hemocytometer on the 4th, 5th, 6th, 7th and 8th day.\n(§1) After 2 days, the Optimem I conditioned media was concentrated by Centricon at 4° C. 40 μl of IgB4 conditioned media or 10 μM of tyrosine kinase inhibitor AG1478 were combined with […] 1 nM NRG in MCF10A/AT media for 15 min at room temperature before being added to MCF10CA1 cells for 30 min treatment. […] The amount of each antagonist was determined empirically based on its ability to block NRG-induced activation of L6 cells."}, "[2]": {"tested_on": "erbB receptor phosphorylation (p185) in MCF10CA1 cells", "assay": "p185 receptor phosphorylation western blot, MCF10CA1", "format": "cell-based, human", "conditions": "for exogenous NRG-induced p185 erbB receptor phosphorylation: AG1478 or 100 μg/ml Trastuzumab (24 h pre-treatment)", "experimental": "Western blots and L6 muscle assays: P185 receptor phosphorylation of the three cell lines was measured by phosphotyrosine western blots after NRG treatment for 30 min on 3 day old cultures as described in WO 03/012045 and Li Q & Loeb J A (2001) J Biol Chem; 276:38068-75. […] The media was discarded and phosphotyrosine western blots were performed as above. The membranes were stripped and reprobed with polyclonal rabbit erbB2 for the detection of overall erbB2 protein that was used for quantitation.\nas §1"}, "[3]": {"conditions": "1 nM NRG, 30 min, IgB4 conditioned media"}}, "data": [{"molecule": "COc1cc2ncnc(Nc3cccc(Cl)c3)c2cc1OC", "note": "[AG1478, reference compound]", "values": [{"measurement": "MCF10CA1 proliferation with exogenous NRG", "setting": "[1]", "result": "reduced the growth rate"}, {"measurement": "MCF10CA1 growth rate without exogenous NRG", "setting": "[1]", "result": "reduced the growth rate"}, {"measurement": "EGF receptor phosphorylation (lower band)", "setting": "[2]; 1 nM NRG, 30 min", "result": "reducing both p185 (erbB2/3, upper band) and EGF receptor phosphorylation (lower band) in a dose dependent manner"}, {"measurement": "exogenous NRG-induced p185 erbB receptor phosphorylation", "setting": "[2]; [3]", "result": "blocked NRG-induced erbB signaling"}]}, {"molecule": "B1", "values": [{"measurement": "MCF10CA1 proliferation with exogenous NRG", "setting": "[1]", "result": "blocked MCF10CAL cell proliferation induced by exogenous NRG treatment"}, {"measurement": "MCF10CA1 growth rate without exogenous NRG", "setting": "[1]", "result": "significantly reduced the baseline growth rate"}, {"measurement": "exogenous NRG-induced p185 erbB receptor phosphorylation", "setting": "[2]; [3]", "result": "effectively blocked"}, {"measurement": "basal p185 erbB receptor phosphorylation", "setting": "[2]; no exogenous NRG, IgB4 conditioned media, 10 μM AG1478 or 100 μg/ml Trastuzumab (24 h pre-treatment)", "result": "effectively blocked"}]}]}
